The text below walks through data of PMC9392260 (Journal of Inflammation Research, 2022).

By IC50 is commonly meant the midpoint of a concentration-inhibition curve. Lower therefore signals inhibition by little substance.

What all share (format): biochemical
The target of one experiment is ACE2 (Homo sapiens, UniProt Q9BYF1). Description: fluorescent ACE2 inhibitor screening kit.
The target of experiment [1] is T1, COX-2 (Homo sapiens, UniProt P35354).
T1 sequence (P35354 18-604): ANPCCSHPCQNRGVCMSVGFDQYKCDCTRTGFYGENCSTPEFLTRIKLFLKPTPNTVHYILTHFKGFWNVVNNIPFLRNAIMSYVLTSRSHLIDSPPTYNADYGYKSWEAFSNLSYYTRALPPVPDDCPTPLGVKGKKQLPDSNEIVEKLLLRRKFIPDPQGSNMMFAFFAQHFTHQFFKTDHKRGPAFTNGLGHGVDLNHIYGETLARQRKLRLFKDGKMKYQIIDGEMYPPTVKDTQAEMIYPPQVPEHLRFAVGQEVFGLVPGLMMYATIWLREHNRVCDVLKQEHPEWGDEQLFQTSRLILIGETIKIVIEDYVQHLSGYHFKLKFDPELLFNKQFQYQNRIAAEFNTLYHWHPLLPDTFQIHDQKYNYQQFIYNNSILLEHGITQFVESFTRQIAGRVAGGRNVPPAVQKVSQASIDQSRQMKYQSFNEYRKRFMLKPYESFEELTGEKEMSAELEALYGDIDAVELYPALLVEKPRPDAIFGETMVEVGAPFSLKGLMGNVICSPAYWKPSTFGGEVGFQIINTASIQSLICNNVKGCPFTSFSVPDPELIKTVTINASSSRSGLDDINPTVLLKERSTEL
The experiment in a line: fluorescent COX-2 inhibitor screening kit.

Experiment [2] has as its target T1, COX-2. Description: fluorescent COX-2 inhibitor screening kit. The source holds these as a separate data set.

Where two headings read alike, the source gives them in different places.

Sequence of ACE2 (Q9BYF1 18-805): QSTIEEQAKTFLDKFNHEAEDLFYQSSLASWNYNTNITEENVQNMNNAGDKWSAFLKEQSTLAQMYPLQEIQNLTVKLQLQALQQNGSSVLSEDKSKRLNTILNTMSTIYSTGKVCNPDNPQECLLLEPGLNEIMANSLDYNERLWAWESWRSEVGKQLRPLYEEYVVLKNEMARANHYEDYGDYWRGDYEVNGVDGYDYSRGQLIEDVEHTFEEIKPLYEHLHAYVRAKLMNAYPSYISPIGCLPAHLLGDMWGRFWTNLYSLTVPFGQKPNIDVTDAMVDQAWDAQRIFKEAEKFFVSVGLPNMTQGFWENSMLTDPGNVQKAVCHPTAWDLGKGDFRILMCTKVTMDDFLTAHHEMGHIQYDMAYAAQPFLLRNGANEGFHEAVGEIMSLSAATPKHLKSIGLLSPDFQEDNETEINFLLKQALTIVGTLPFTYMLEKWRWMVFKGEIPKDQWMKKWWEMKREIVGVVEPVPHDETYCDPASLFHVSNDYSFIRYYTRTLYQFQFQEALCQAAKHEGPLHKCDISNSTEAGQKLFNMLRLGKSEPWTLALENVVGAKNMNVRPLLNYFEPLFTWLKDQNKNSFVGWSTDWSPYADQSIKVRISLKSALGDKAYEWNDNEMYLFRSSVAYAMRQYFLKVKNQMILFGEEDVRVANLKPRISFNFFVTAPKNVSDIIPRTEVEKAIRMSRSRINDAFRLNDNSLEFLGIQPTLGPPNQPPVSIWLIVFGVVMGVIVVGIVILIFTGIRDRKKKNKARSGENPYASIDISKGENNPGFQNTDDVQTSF

On to `O=c1c(O[C@@H]2O[C@H](CO)[C@@H](O)[C@H](O)[C@H]2O)c(-c2ccc(O)c(O)c2)oc2cc(O)cc(O)c12` [compound 5, Quercetin 3-O-glucoside], for which, at ACE2, it took 135 ± 6.54 µM to reach half-maximal inhibition (IC50).

Regarding `O=c1c(O)c(-c2ccc(O)cc2)oc2cc(O)cc(O)c12` [compound 11, Kaempferol], it took 0.36 ± 0.02 µM to reach half-maximal inhibition against COX-2 [1] (IC50).

Compound `COc1cc([C@@H]2c3cc4c(cc3[C@H](O)[C@H]3COC(=O)[C@H]23)OCO4)cc(OC)c1OC` [compound 12, Podophyllotoxin] yielded an IC50 on COX-2 [2] of 10.5 ± 0.61 µM.
